Laboratory results reported in patent publication US20250134855A1, “CO[…] AND METHODS OF USING SAME” (LYKOS THERAPEUTICS, INC., priority 2022, published 2025).

Legend:
[1] = biological target: organic anion transporter (OAT1) (Homo sapiens, UniProt Q4U2R8); experiment: Transporter inhibition, OAT1
male rats = experiment: In vivo genotoxicity (micronucleated polychromatic erythrocytes), male rats; design: species or system rat; settings: oral, doses up to 100 mg/kg day over two days
Excerpt: No statistically significant differences in micronucleated polychromatic erythrocytes or bone marrow cytotoxicity were observed across all dose levels.

[2] = system: participants with PTSD of moderate or greater severity; experiment: MAPP2 Phase 3: CAPS-5 total severity score; assay type: in vivo, human; settings: for Change from Baseline in CAPS-5 Total Severity Score, LS Mean for Treatment Difference / Change from Baseline in CAPS-5 Total Severity Score, LS Mean / CAPS-5 Total Severity Score, Mean / CAPS-5 Total Severity Score, Median / Change from Baseline in CAPS-5 Total Severity Score, Mean / Change from Baseline in CAPS-5 Total Severity Score, Median / Loss of Diagnosis, % / Non-Responder, % / Remission, % / Responder (10-point reduction in CAPS-5 Total Severity Score), %: MAPP2, mITT; for Change from Baseline in CAPS-5 Total Severity Score, LS Mean for Treatment Difference: vs placebo; for Change from Baseline in CAPS-5 Total Severity Score, LS Mean / CAPS-5 Total Severity Score, Mean / CAPS-5 Total Severity Score, Median / Change from Baseline in CAPS-5 Total Severity Score, Mean / Change from Baseline in CAPS-5 Total Severity Score, Median: de jure
Excerpt: (§1) FIG. 36 and FIG. 37 show the time course of improvement in Clinician Administered PTSD Scale for DSM-5 (CAPS-5) total severity score versus placebo. Each show a treatment difference between MDMA and placebo after 3 medication sessions with psychological intervention. […] Between the second and third treatment sessions, the difference between the groups appeared to continue to increase in both studies. The primary efficacy measure was change from baseline in the CAPS-5 total severity score at 18 weeks, which was evaluated 2 months after the final dosing session. The CAPS-5 is a 30-item, clinician-rated scale used to assess severity of PTSD symptoms and diagnostic status according to DSM-5 criteria, as described herein. Scores on the CAPS 5 range from 0 to 80, with higher scores indicating more severe PTSD symptoms. In both studies, a secondary efficacy measure was change from baseline in Sheehan Disability Scale (SDS) mean item scores at 18 weeks. The modified SDS is a 3-item, clinician-rated scale measuring the degree of functional impairment in work, family, and social life. Scores on the SDS mean items range from 0 to 10, with higher scores indicating more functional impairment. In these studies, the efficacy assessments were administered by blinded independent raters 18 to 30 days after medication sessions 1 and 2.
(§2) MAPP2 was a Phase 3 randomized, placebo-controlled, 2-arm, double-blind, multi-site study conducted to investigate the efficacy and safety of MDMA-AT in participants with PTSD of moderate or greater severity. This study included 3 experimental sessions of therapy combined with either MDMA or placebo. During Experimental Session 1, participants received a split dose of 120 mg (80 mg+40 mg). Participants received an escalated split dose of 180 mg during Experimental Sessions 2 and 3 unless there were tolerability issues or the participant declined.
(§3) The primary outcome measure, the CAPS-5, evaluated changes in PTSD symptom severity and the secondary outcome measure, the SDS, evaluated changes in functional impairment. Both measures were assessed by a blinded centralized language-specific IR pool.
A de jure estimand of treatment efficacy was used to estimate the causal effect of MDMA-AT on PTSD symptom severity as measured by the change from Baseline to Visit 19 in CAPS-5 total severity scores in the mITT analysis set. […] Differences in treatment effect among demographic, dissociative sub-type, and overnight stay subgroups were not observed.

[3] = Study MPKF: safety and tolerability (AEs, laboratory, vital signs); assay type: in vivo, human; settings: human, plasma, oral, 120 mg, 1 participant, no AEs reported
Excerpt: (§4) The MPKF was a Phase 1, open-label, randomized sequence, multi-dose, 2-period crossover food effect study in 16 healthy individuals. The MPKF study evaluated plasma concentrations of both MDMA and the active metabolite 3,4-methylenedioxyamphetamine (MDA). Summary PK Parameters of the preliminary data was based on interim analysis are presented in Table 12 Table 12 Table 12, and Table 13 Table 13 Table 13 for MDMA and MDA, respectively.
(§5) Participants remained at the clinical research unit (CRU) for each Dosing Session from the time of check-in on the night before dosing until discharge 48 hours after dosing for collection of serial blood samples for PK analysis and safety monitoring. IMP was administered on Day 1 following the treatment sequence to which the participant was randomized. An additional outpatient visit occurred 72 hours after dosing to collect a final PK sample, commensurate with the expected PK profiles of MDMA and MDA. Safety assessments were also performed at this visit.
(§6) The washout period between Dosing Sessions was at least 14 days. If a participant experienced emesis within 4 hours of administration, they were to be withdrawn from the study and replaced with a new participant. An End of Study Visit was performed 2 to 10 days after the completion of the final Dosing Session 72-hour follow-up. An informal interim analysis was planned to be conducted after at least 5 participants completed at least 1 Dosing Session to examine PK variability.

healthy individuals = experiment: as above; assay type: in vivo, human
Excerpt: as §4, §5, §6

human plasma proteins = settings: literature (Wan Aasim 2017); cited from earlier work
[4] = system: participants with PTSD of moderate or greater severity; experiment: MAPP2 Phase 3: Sheehan Disability Scale (SDS); assay type: in vivo, human
Excerpt: as §1, §2, §3
The de jure estimand of treatment efficacy was used to determine the effect of MDMA-AT on SDS total score in the mITT analysis set.

[5] = Baseline to Primary Outcome T4 (Visit 19)
[6] = Primary Outcome CAPS-5 T4 (Visit 19)
[7] = MAPP2, MMRM, de jure estimand, mITT
[8] = MAPP2, mITT, Baseline (Visit 3)
[9] = MAPP2, mITT, Baseline to Visit 19
[10] = MAPP2, mITT, Visit 19 (Primary Endpoint)
[11] = end of treatment, 52 patients (study not given)

Sequence of organic anion transporter (OAT1) (Q4U2R8 whole entry): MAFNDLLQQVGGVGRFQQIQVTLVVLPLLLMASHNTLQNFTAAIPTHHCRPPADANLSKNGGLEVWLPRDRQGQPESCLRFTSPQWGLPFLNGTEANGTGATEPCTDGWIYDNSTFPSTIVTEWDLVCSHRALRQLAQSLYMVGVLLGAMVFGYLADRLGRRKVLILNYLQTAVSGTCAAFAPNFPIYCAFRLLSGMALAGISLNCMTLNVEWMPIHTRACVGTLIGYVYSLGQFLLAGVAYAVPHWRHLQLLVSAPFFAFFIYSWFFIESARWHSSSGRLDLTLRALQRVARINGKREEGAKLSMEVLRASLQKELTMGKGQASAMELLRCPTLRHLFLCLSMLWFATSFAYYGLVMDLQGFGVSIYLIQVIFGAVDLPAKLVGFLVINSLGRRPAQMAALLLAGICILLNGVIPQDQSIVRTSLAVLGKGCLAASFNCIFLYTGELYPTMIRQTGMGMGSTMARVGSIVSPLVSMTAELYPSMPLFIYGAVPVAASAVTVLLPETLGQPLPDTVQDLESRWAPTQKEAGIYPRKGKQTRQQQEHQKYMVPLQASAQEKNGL

CNC(C)Cc1ccc2c(c1)OCO2 (centres unmarked) [MDMA, 3,4-methylenedioxymethamphetamine]
inhibition of OAT1 [1]: not an inhibitor
genotoxicity in vivo (male rats): no signs of genotoxicity
onset of treatment efficacy (CAPS-5 versus placebo) ([2]; FIG. 36 and FIG. 37, both studies): after the second session
Change from Baseline in CAPS-5 Total Severity Score, LS Mean for Treatment Difference ([2]; MMRM, T2 (Visit 8)): −4.14
Change from Baseline in CAPS-5 Total Severity Score, LS Mean for Treatment Difference ([2]; MMRM, T3 (Visit 13)): −7.98
Change from Baseline in CAPS-5 Total Severity Score, LS Mean for Treatment Difference ([2]; MMRM, T4 (Visit 19)): −8.91
Change from Baseline in CAPS-5 Total Severity Score, LS Mean ([2]; MMRM, Baseline to Primary Outcome T4 (Visit 19)): −23.69
Change from Baseline in CAPS-5 Total Severity Score, LS Mean ([2]; MMRM, Baseline to T2 (Visit 8)): −11.36
Change from Baseline in CAPS-5 Total Severity Score, LS Mean ([2]; MMRM, Baseline to T3 (Visit 13)): −18.58
CAPS-5 Total Severity Score, Mean ([2]; Baseline CAPS-5 T1 (Visit 3)): 39.4
CAPS-5 Total Severity Score, Median ([2]; Baseline CAPS-5 T1 (Visit 3)): 39.0
Change from Baseline in CAPS-5 Total Severity Score, Mean [2, 5]: −23.5
Change from Baseline in CAPS-5 Total Severity Score, Median [2, 5]: −25.0
Change from Baseline in CAPS-5 Total Severity Score, Mean ([2]; Baseline to T2 (Visit 8)): −11.3
Change from Baseline in CAPS-5 Total Severity Score, Median ([2]; Baseline to T2 (Visit 8)): −12.0
Change from Baseline in CAPS-5 Total Severity Score, Mean ([2]; Baseline to T3 (Visit 13)): −18.5
Change from Baseline in CAPS-5 Total Severity Score, Median ([2]; Baseline to T3 (Visit 13)): −20.0
CAPS-5 Total Severity Score, Mean ([2]; CAPS-5 T2 (Visit 8)): 28.1
CAPS-5 Total Severity Score, Median ([2]; CAPS-5 T2 (Visit 8)): 30.0
CAPS-5 Total Severity Score, Mean ([2]; CAPS-5 T3 (Visit 13)): 20.9
CAPS-5 Total Severity Score, Median ([2]; CAPS-5 T3 (Visit 13)): 19.0
CAPS-5 Total Severity Score, Mean [2, 6]: 15.8
CAPS-5 Total Severity Score, Median [2, 6]: 15.5
Loss of Diagnosis, % ([2]; CAPS-5 T2 (Visit 8)): (39.6) %
Non-Responder, % ([2]; CAPS-5 T2 (Visit 8)): (47.2) %
Remission, % ([2]; CAPS-5 T2 (Visit 8)): (9.4) %
Responder (10-point reduction in CAPS-5 Total Severity Score), % ([2]; CAPS-5 T2 (Visit 8)): (52.8) %
Loss of Diagnosis, % ([2]; CAPS-5 T3 (Visit 13)): (60.4) %
Non-Responder, % ([2]; CAPS-5 T3 (Visit 13)): (22.6) %
Remission, % ([2]; CAPS-5 T3 (Visit 13)): (26.4) %
Responder (10-point reduction in CAPS-5 Total Severity Score), % ([2]; CAPS-5 T3 (Visit 13)): (77.4) %
Loss of Diagnosis, % [2, 6]: (71.2) %
Non-Responder, % [2, 6]: (13.5) %
Remission, % [2, 6]: (46.2) %
Responder (10-point reduction in CAPS-5 Total Severity Score), % [2, 6]: (86.5) %
change from Baseline to Visit 19 in CAPS-5 total severity scores [2, 7]: −23.69
no longer met PTSD diagnostic criteria ([2]; MAPP2, Visit 19): 71.2%
remission (CAPS-5 ≤11 and no longer meeting PTSD diagnostic criteria) ([2]; MAPP2, Visit 19): 46.2%
responders (10-point reduction in CAPS-5 total severity score) ([2]; MAPP2, Visit 19): 86.5%
AUC(0-inf) ([3]; read-out: AUC0-inf at which tolerability is supported): 8920 ng·h/mL
Cmax ([3]; read-out: Cmax at which tolerability is supported): 440 ng/mL
participants with SBP≥160 mmHg or DBP≥100 mmHg or temperature>38.3° C. (healthy individuals; any timepoint): No participant
time of largest mean changes in SBP, DBP, temperature (healthy individuals; fasted condition): 2 h
time of largest mean changes in SBP, DBP, temperature (healthy individuals; fed group): 4 h
difference in largest mean change of SBP, fasted vs fed (healthy individuals; non-clinically significant): about +5 mmHg
difference in largest mean change of temperature, fasted vs fed (healthy individuals; non-clinically significant): ~+0.05 °C
impact on biologic laboratory parameters (healthy individuals; screening to end of study): no significant impact
bound to plasma proteins in humans (human plasma proteins): 51%
SDS Total Score CFB, LSMean ([4]; MAPP2, mITT, MMRM, Visit 19): −3.31
SDS Total Score CFB, LSMean for Treatment Difference ([4]; MAPP2, mITT, MMRM, vs placebo with therapy, Visit 19): −1.20
SDS Total Score, Mean [4, 8]: 6.0
SDS Total Score, Median [4, 8]: 6.3
SDS Total Score CFB, Mean [4, 9]: −3.3
SDS Total Score CFB, Median [4, 9]: −4.0
SDS Total Score, Mean ([4]; MAPP2, mITT, Visit 8): 4.1
SDS Total Score, Median ([4]; MAPP2, mITT, Visit 8): 4.3
SDS Total Score, Mean ([4]; MAPP2, mITT, Visit 13): 2.9
SDS Total Score, Median ([4]; MAPP2, mITT, Visit 13): 2.7
SDS Total Score, Mean [4, 10]: 2.7
SDS Total Score, Median [4, 10]: 2.3
reduction in SDS total scores [4, 7]: −3.31
SDS Remission (SDS mean item score < 3) [4, 11]: (55.8) %
SDS Remission (SDS mean item score < 3), n [4, 11]: 29
SDS Responder (4 point or greater reduction from baseline SDS mean item score) [4, 11]: (53.8) %
SDS Responder (4 point or greater reduction from baseline SDS mean item score), n [4, 11]: 28
